What is called Ki is the dissociation constant of the complex between target and ligand, obtained from inhibition or displacement.

Assay [1] concerns the target T1, rat NPY Y5 receptor (6B clone) (Rattus norvegicus, UniProt Q63634, L61P).
T1 construct: expressed in transfected cells; host or cells: COS-7 (transient), membranes
T1 sequence (Q63634 1-445 L61P): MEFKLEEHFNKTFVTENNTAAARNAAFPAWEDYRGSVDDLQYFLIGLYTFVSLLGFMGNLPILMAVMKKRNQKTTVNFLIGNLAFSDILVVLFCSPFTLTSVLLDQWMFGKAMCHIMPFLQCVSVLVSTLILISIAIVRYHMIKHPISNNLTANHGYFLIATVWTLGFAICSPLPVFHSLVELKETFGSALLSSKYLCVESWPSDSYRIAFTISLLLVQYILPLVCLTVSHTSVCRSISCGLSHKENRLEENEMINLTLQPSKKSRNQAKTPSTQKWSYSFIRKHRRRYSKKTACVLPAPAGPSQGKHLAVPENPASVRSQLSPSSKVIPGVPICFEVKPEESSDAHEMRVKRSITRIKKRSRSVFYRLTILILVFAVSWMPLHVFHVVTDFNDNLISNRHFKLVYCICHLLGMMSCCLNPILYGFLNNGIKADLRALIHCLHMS
Briefly: [125I]PYY competition binding, rat Y5 6B clone transiently expressed in COS-7 membranes. The settings on record: transient COS-7 membranes, ± SEM, read-out: NPY Y5 binding affinity Ki, RAT 6B Clone.
Procedure: Cells at 70% confluency were transfected with Y5 DNA using the Lipofectamine method (GIBCO-BRL). 15 μg DNA and 90 μl Lipofectamine were added to each flask. Media was completely replaced 24 hours post transfection, and membranes were harvested 24 hours later.
The media was removed from each flask of transfected cells, and the cells were washed twice with 20 ml ice-cold phosphate buffered saline. The cells were scraped from the flask in 5 ml of Tris buffer (20 mM Tris-HCl and 5 mM EDTA, pH 7.7), and then transferred to a centrifuge tube. Each flask was washed with an additional 5 ml of Tris buffer and combined in the centrifuge tube. The cells were polytroned for 2×10 seconds (12 mm probe, 7000-8000 rpm) and centrifuged 5 minutes (Centra 7R, International Equipment Co., Needham Heights, Mass.) at 800 rpm and 4° C. […] Protein concentration was measured using the Bio-Rad kit pursuant to the standard manufacturer's protocol (Biorad Laboratories, Hercules, Calif.),with bovine IgG as the standard. […]
(§1) After a 2 hour incubation at room temperature with constant mixing, the samples were aspirated on a vacuum manifold. […] The individual wells were punched into 12×75 mm plastic tubes, and counted on a Wallac (Gaithersburg, Md.) gamma counter. Binding data were analyzed using the nonlinear regression curve-fitting program RS/1 (BBN Software Products Corp., Cambridge, Mass.). […]

Assay [2] deals with T2, human NPY Y5 receptor (Homo sapiens, UniProt Q15761).
T2 construct: containing the full length open reading frame encoding the receptor; expressed in transfected cells
T2 sequence (Q15761 1-445): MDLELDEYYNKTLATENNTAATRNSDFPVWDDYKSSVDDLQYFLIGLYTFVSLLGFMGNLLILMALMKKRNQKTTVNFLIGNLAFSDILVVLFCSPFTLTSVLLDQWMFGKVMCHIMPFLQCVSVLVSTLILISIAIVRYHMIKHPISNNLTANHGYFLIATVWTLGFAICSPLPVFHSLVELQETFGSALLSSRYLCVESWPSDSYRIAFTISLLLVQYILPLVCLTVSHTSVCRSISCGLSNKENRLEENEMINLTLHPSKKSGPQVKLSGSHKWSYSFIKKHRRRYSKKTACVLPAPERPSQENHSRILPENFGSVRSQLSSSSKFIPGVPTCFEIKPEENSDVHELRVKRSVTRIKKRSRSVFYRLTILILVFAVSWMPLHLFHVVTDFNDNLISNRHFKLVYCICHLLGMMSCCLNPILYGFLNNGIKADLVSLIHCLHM
The experiment in a line: [125I]PYY competition binding, human Y5 clone transiently expressed in COS-7 membranes. The settings on record: transient COS-7 membranes, ± SEM, read-out: NPY Y5 binding affinity Ki, HUMAN Clone.

Assay [3] deals with T3, rat NPY Y5 receptor (Y861 clone) (Rattus norvegicus, UniProt Q63634).
T3 sequence (Q63634 1-445): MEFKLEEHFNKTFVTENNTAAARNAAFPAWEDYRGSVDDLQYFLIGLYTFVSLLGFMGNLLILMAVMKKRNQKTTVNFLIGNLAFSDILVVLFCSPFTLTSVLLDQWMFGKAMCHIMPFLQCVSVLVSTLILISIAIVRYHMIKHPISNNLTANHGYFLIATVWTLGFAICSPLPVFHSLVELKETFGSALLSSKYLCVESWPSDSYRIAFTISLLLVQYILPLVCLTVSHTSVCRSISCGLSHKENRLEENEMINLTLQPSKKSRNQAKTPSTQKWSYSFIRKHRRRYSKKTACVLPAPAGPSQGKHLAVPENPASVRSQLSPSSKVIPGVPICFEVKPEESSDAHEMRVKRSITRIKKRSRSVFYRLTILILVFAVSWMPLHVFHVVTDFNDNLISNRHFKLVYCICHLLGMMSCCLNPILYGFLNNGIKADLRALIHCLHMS
Briefly: [125I]PYY competition binding, rat Y5 Y861 clone transiently expressed in COS-7 membranes. Further details: expressed in transfected cells; host or cells: COS-7 (transient), membranes. The settings on record: transient COS-7 membranes, ± SEM, read-out: NPY Y5 binding affinity Ki, RAT Y861 Clone.
Procedure: Monkey kidney cells (COS-7) were maintained in T-175 cm^2 flasks (NUNC) at 37° C. with 5% CO2 in a humidified atmosphere. Cells were grown in Dulbecco's Modified Eagle Medium (DMEM) supplemented with 2 mM glutamine, 10% fetal bovine serum, 1 mM sodium pyruvate, and antibiotic/antimycotic. Cells at 70% confluency were transfected with Y5 DNA using the Lipofectamine method (GIBCO-BRL). 15 μg DNA and 90 μl Lipofectamine were added to each flask. Media was completely replaced 24 hours post transfection, and membranes were harvested 24 hours later.
The media was removed from each flask of transfected cells, and the cells were washed twice with 20 ml ice-cold phosphate buffered saline. The cells were scraped from the flask in 5 ml of Tris buffer (20 mM Tris-HCl and 5 mM EDTA, pH 7.7), and then transferred to a centrifuge tube. […] Protein concentration was measured using the Bio-Rad kit pursuant to the standard manufacturer's protocol (Biorad Laboratories, Hercules, Calif.),with bovine IgG as the standard. […]
as §1

Assay [4] relates to food intake of Wistar rats. The experiment in a line: In vivo feeding after ICV injection in rats. As to conditions: for Feeding: ICV, 1-6 nmoles peptide, chow consumed in 2 hours; for Feeding response in rats (in words): in vivo feeding model. Further details: species or system rat.
Procedure: Adult male Wistar rats were surgically implanted with a chronic intracerebral ventricular (ICV) cannula (Plastic Products, Roanoke, Va.) using a stereotaxic instrument. Several days after the surgery, 1-6 nmoles of each peptide (or saline) was injected into the lateral ventricle of 4-12 rats in a volume of 5-10 μl. The quantity of rodent chow consumed in a 2 hour period was measured.
The target in the next assay is T4, Rat Y2 (clone) (Rattus norvegicus, UniProt Q9ERC0).
T4 sequence (Q9ERC0 1-381): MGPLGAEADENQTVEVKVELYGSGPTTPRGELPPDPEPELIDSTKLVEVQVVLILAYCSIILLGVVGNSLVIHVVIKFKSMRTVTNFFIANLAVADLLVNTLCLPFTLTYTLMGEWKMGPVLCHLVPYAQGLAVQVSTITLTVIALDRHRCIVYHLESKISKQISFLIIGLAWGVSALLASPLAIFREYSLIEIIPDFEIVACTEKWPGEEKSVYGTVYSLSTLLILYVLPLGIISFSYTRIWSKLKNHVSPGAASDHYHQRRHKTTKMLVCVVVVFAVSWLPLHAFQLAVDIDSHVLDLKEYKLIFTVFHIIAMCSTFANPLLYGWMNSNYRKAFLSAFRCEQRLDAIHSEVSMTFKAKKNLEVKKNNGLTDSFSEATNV
The experiment in a line: [125I]PYY binding assay for rat Y2 receptor.

The next assay addresses T5, Rat Y1 (clone) (Rattus norvegicus, UniProt P21555).
T5 sequence (P21555 1-382): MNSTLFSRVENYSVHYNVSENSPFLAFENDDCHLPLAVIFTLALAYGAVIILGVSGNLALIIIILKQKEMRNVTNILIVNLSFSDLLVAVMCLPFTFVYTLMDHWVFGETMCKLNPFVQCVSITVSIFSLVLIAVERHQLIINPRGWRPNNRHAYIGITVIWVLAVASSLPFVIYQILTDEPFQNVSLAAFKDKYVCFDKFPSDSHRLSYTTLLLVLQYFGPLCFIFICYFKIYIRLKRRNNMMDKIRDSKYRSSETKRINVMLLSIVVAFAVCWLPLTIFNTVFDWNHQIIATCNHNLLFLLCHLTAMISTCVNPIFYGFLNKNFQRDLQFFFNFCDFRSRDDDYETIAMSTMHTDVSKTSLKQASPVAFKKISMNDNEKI
The experiment in a line: [125I]PYY binding assay for rat Y1 receptor.

Assay [5] deals with T6, rat NPY Y5 receptor, Y861 clone (rat, UniProt Q63634 1-445).
T6 sequence: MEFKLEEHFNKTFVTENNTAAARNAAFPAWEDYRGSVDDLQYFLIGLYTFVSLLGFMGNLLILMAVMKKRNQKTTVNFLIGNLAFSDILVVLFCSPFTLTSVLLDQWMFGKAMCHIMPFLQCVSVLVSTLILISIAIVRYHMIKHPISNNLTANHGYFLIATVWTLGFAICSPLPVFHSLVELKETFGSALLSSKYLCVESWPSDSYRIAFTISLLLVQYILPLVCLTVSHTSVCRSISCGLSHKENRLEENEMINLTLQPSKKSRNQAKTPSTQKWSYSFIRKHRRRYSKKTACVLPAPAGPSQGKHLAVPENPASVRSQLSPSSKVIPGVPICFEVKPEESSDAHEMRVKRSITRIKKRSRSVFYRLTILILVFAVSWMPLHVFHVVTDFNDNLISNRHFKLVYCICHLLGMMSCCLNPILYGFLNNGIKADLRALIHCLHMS
The experiment in a line: [125I]PYY competition, membranes of stable 293S clone 293S.Y861.2.

Assay [6] deals with T7, human NPY Y5 receptor (human, UniProt Q15761 1-445).
T7 construct: also called HUMAN Clone
T7 sequence: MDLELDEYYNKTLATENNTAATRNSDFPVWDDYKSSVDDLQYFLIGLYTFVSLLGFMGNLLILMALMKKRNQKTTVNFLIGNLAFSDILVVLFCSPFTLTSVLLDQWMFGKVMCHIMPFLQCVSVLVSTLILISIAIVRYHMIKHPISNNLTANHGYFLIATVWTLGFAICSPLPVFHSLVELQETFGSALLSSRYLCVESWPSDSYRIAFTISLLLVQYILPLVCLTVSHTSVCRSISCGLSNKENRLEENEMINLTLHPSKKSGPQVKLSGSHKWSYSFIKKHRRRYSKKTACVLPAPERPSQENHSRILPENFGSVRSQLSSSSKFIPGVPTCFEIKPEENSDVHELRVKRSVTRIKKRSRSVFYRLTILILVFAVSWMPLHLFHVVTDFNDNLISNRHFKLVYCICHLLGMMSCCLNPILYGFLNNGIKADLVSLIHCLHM
Briefly: [125I]PYY competition, membranes of stable 293 clone 293.hY5.sb.8.

The target of assay [7] is T7, human NPY Y5 receptor. The experiment in a line: [125I]PYY competition, membranes of transiently transfected COS-7 cells; individual experiment.
Procedure: The binding assays were performed on GF/C Millipore (Bedford, Mass.) 96-well plates pretreated with 0.02% polyethylenimine (PEI) for at least 2 hours prior to use. The PEI was aspirated from the plates on a vacuum manifold immediately before the samples were added to the wells. All peptides, tissue and radioligand were diluted with binding buffer (25 mM Tris, 120 mM NaCl, 5 mM KCl, 1.2 MM KH₂PO₄, 2.5 mM CaCl₂, 1.2 mM MgSO₄, 0.1% BSA and 0.5 mg/ml bacitracin, pH 7.4).
After a 2 hour incubation at room temperature with constant mixing, the samples were aspirated on a vacuum manifold. The wells were washed with three 200 μl aliquots of ice-cold binding buffer. The individual wells were punched into 12×75 mm plastic tubes, and counted on a Wallac (Gaithersburg, Md.) gamma counter. Binding data were analyzed using the nonlinear regression curve-fitting program RS/1 (BBN Software Products Corp., Cambridge, Mass.).
Each point is the average value of triplicate determinations from a representative experiment. […] Kᵢ values were calculated from the IC₅₀ values using the Cheng-Prusoff correction, such that Kᵢ=IC₅₀/(1±(L/Kd)), where L is the radioligand concentration and Kd is the dissociation constant.
Assay [8] addresses T6, rat NPY Y5 receptor, Y861 clone. The experiment in a line: cell-based or functional assay.

Where “and” joins values, the source holds several entries; their conditions need not be identical. Equal values may be shown once. Ends that are not written are not given here.

As to `NC(N)=NCCC[C@@H](NC(=O)C(c1ccccc1)c1ccccc1)C(=O)NCc1ccc(O)cc1` [BIBP3226], the Ki (in assay [1]; at human NPY Y5 receptor [2]; in assay [3]) was more than 1000 nM throughout.

In assay [4], (2-36)NPY [r/h(2-36)NPY] had a Feeding of more than 5 g/2 h. Take (3-36)NPY [p(3-36)NPY]: the “Affinity for Y2 receptor (in words)” value at Rat Y2 (clone) is recorded as “binds preferentially”. The “Affinity for Y1 receptor (in words)” value at Rat Y1 (clone) is reported as “much weaker”. Further, in [4], the Feeding is listed as more than 5 g/2 h and the “Feeding response in rats (in words)” value is reported as “stimulate feeding”. As for (10-36)NPY [r/h(10-36)NPY], the Feeding in assay [4] is recorded as less than 3 g/2 h. For the molecule (13-36)PYY (peptide), the inhibition constant (Ki) in assay [5] came to 29 nM; in the assay with human NPY Y5 receptor [6], 24 nM. The molecule (18-36)NPY [p(18-36)NPY] showed a Feeding in assay [4] of less than 3 g/2 h. For (20-36)NPY [r/h(20-36)NPY], in assay [4], the Feeding is listed as less than 3 g/2 h and the “Feeding response in rats (in words)” value is on record as “do not elicit feeding”. Molecule (22-36)NPY [r/h(22-36)NPY] showed a Feeding in [4] of less than 3 g/2 h. Still for that read-out and setting: to (26-36)NPY [r/h(26-36)NPY] belongs less than 3 g/2 h.

In the case of (Leu^31Pro^34)(3-36)NPY [(LP)(3-36)NPY], in assay [4], the Feeding is recorded as more than 5 g/2 h and the “Feeding response in rats (in words)” value is “stimulates feeding”. In the same order, the values of (Leu^31Pro^34)NPY [p(LP)NPY] are more than 5 g/2 h and “stimulate feeding”. The molecule (Leu^31Pro^34)PYY [h(LP)PYY] had a Feeding in [4] of more than 5 g/2 h. Turning to Neuropeptide Y [r/hNPY], the Feeding in assay [4] is listed as more than 5 g/2 h.

B1: r(13-36)NPY (peptide, UniProt P07808 42-65, looked up)
peptide: PAEDMARYYSALRHYINLITRQRY
modifications: ends and bridges not checked
notes: range 13-36; it may be a misprint for r(13-36)PYY (rat NPY is elsewhere written r/h)
Take B1: the inhibition constant (Ki) with human NPY Y5 receptor [7] is 89 nM and 65 nM. In the case of APLEPVYPGDNATPEQMAQYAADLRRYINMLTRPRY (peptide, UniProt P01298 30-65, looked up) [hPP (human pancreatic polypeptide)], the “EC50, forskolin-stimulated adenylate cyclase (cAMP), 293S.Y861.2 cells” value in assay [8] came out at 1 nM.
